{
  "source": "patent US12616753B2",
  "about": "“HSP70 inhibitors and methods of using same” (THE WISTAR INSTITUTE, priority 2020, dated 2026)",
  "tested_on": "MC38 and HT-29 cells",
  "assay": "Extracellular ATP release (CellTiter-Glo)",
  "assay_type": "cell-based",
  "protocol": "FIG. 6A: 1×10^6 MC38 cells were injected subcutaneously into the right flank of 6-8-week-old male C57Bl/6 mice. Once tumors reached an approximate volume of 100 mm^3, mice were treated with AP-4-139B (10 mg/kg) every 48 hours. 20 days after the start of treatment, tumors were excised, weighed, minced and digested. Tumor-infiltrating and splenic conventional CD4 (cCD4) (Live CD45^+ DUMP^− CD3^+CD4^+Foxp3^−), Tregs (Live CD45^+ DUMP^− CD3^+CD4^+Foxp3^+), CD8 (Live CD45^+ DUMP^− CD3^+CD8^+) T-cells, and Dendritic Cells (Live CD45^+ DUMP^− CD3^−CD11c^+MHCII^+) numbers were assessed by flow cytometry. * p<0.05, n.s. not significant. n=8 mice per group. FIG. 6B: MC38 and HT-29 cells were treated with the indicated concentrations of AP-4-139B for either 8 or 24 hours; media was collected and subjected to WB for HMGB1. Data shown are representative of three technical replicates. FIG. 6C: MC38 and HT-29 cells were treated with the indicated concentrations of AP-4-139B for three hours and then assayed for extracellular ATP release. Each graphical representation indicates the mean±the standard deviation of three independent experiments relative to control (DMSO-treated) cells.\nFIG. 6D: MC38 cells were treated with 5 μM AP-4-139B for 24 hours and subjected to flow cytometry, using Alexa488-tagged calreticulin antibody. *** p<0.001, n=4 biological replicates performed in duplicate. FIG. 6E: MC38 cells were treated with increasing concentrations of AP-4-139B, G-TPP, 17-AAG or Metformin for 3 hours and then assayed for extracellular ATP release. Three independent cultures were assayed for each treatment, and DMSO-treated cells were used as internal controls. Error bars represent standard deviation (SD).\nThe XF Cell Mito Stress Test was performed. Briefly, HT-29 (10,000 cells/well), IMR90 (15,000 cells/well), and 1205Lu (15,000 cells/well) were plated in Seahorse 96-well cell culture microplates, treated with the respective inhibitors for 24 hours, and subjected to the Seahorse XF Cell Mito Stress Test, according to the manufacturer's protocol (Agilent Technologies). For extracellular HMGB1 release, 1×10^6 MC38 cells were plated in 10-cm dishes. The next day, cells were treated with the indicated concentrations of AP-4-139B for 8 or 24 hours in serum-free media. Media was collected and spun down at 2,000 rpm for 5 minutes to pellet any remaining cells or debris. Media was then transferred to Amicon Ultra 15, 10K tubes and spun down at 4,000 rpm for 45 minutes, according to the manufacturer's protocol. […] For extracellular ATP release, ATP was measured using the CellTiter-Glo Kit (Promega catalog #G7570). […] 10 μl of CellTiter-Glo Reaction Mix was then mixed with 10 μl of culture media; the luminescence signal was detected using a luminometer.",
  "data": [
    {"molecule": "c1ccc(-c2cn3nc(CCCCCC[P+](c4ccccc4)(c4ccccc4)c4ccccc4)sc3n2)cc1", "note": "[AP-4-139B, Triphenyl(6-(6-phenylimidazo[2,1-b][1,3,4]thiadiazol-2-yl)hexyl)phosphonium bromide]", "values": [
      {"measurement": "ATP release", "setting": "MC38 and HT-29, three hours", "result": "ATP release"},
      {"measurement": "ATP release, comparison of compounds", "setting": "MC38 cells, increasing concentrations, 3 hours", "result": "most significant release of ATP"}
    ]}
  ]
}
